# Measurements: patent publication US20220087961A1, “TREATMENT METHODS OF TRIPHENYL CALCILYTIC COMPOUNDS” (CALCILYTIX THERAPEUTICS, INC., priority 2020, published 2022)
# What was measured:
# [1] = test system: healthy volunteers and postmenopausal women with osteoporosis; conditions: cited from earlier work
# [2] = target: T1, CaSR (Homo sapiens, UniProt P41180); conditions: cell-based assays at 2 mM extracellular calcium; read-out: IC50, inhibition of the CaSR via allosteric modulation; cited from earlier work
# T1 sequence (P41180 20-1078): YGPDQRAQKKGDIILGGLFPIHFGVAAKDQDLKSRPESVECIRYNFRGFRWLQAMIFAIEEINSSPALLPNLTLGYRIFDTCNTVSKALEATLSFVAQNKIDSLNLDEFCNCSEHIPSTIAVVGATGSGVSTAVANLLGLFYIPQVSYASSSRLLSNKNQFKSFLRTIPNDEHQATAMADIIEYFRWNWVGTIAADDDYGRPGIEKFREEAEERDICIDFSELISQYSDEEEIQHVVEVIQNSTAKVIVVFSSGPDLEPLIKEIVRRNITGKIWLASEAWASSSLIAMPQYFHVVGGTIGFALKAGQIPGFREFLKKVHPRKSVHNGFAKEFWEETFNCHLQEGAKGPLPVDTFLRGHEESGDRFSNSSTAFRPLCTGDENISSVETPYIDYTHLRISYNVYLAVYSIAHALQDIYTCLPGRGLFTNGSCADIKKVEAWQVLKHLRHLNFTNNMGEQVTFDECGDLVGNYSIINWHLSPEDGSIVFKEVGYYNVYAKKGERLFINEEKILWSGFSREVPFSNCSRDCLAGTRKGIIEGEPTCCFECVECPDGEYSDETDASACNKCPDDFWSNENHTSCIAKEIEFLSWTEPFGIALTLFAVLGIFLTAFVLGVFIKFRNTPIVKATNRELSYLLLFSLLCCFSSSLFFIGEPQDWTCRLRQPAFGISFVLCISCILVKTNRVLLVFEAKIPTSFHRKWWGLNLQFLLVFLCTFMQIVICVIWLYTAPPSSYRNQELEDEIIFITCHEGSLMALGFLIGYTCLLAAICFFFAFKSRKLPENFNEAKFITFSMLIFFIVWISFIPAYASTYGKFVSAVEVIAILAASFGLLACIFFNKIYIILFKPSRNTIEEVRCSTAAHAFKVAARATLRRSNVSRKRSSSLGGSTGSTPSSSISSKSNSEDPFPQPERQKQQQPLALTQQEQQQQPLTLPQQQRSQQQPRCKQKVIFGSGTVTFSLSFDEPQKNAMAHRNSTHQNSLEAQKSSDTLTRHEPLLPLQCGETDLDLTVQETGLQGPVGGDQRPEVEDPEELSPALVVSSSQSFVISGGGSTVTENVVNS
# [3] = test system: healthy subjects; conditions: single oral dose of up to 100 mg; cited from earlier work
# [4] = test system: subjects with ADH1; experiment: Phase 2b open-label dose-ranging study, Period 1 / Cohort 1; format: in vivo, human
# Description: A Phase 2b, open-label dose-ranging study is designed to evaluate the safety, tolerability, and efficacy of CLTX-305 to maintain normalized albumin-corrected blood calcium (cCa) in subjects with hypocalcemia due to ADH1. An overview scheme of the Phase 2b study is illustrated in FIG. 2.
# Period 1: an inpatient stay that consists of 5 dosing days during which subjects will undergo a once-daily (QD) dose escalation for 3 days followed by 2 days of twice daily (BID) dosing at an individualized test dose of CLTX-305.
# In Period 1, eligible Cohort 1 subjects are admitted to the NIH CC after completing screening tests. On days 1-3 of admission, Cohort 1 subjects will undergo single daily dosing and protocol-specified dose-escalation of CLTX-305 from the initial dose of 30 mg on Day 1, increasing to a maximum dose of 180 mg on Day 3. Based on the individualized responses to QD dose escalation an individualized dose of CLTX-305 will be chosen for BID administration on Days 4 and 5.
# Days 1, 2 and 3 (QD Dose Escalations): Up to 8 subjects (minimum of 5) will undergo a single-dose, dose-escalation over the first 3 days of admission in Period 1. Morning doses will be administered on Days 1, 2 and 3, respectively, accompanied by frequent blood and urine sampling for 24-hours for PK/PD measures. CLTX-305 will be administered in the morning within 30 minutes prior to breakfast. If dose escalation is limited due to tolerability or hypercalcemia, then the investigator, in consultation with sponsor, may choose to interrupt the pre-specified dose escalation. In this case, the investigator, in consultation with sponsor, may choose to repeat the last well tolerated dose on Days 2 and 3, or titrate down as appropriate.
# Days 4 and 5 (BID Dose Escalation): Based on each subject's individual PD responses to QD dose-escalation, an individualized dose of CLTX-305 will be chosen for BID dosing on Days 4 and 5. CLTX-305 will be administered once in the morning and once in the evening, within 30 minutes prior to breakfast and dinner. The dose selected should be based on each subject's response in cCa and/or PTH levels during the prior QD dosing (Days 1-3).
# Days 1, 2 and 3 (QD Dose Escalations): Up to 8 subjects (minimum of 5) will undergo a single-dose, dose-escalation over the first 3 days of admission. Morning doses of 30, 90 and 180 mg will be administered on Days 1, 2 and 3, respectively, accompanied by frequent blood and urine sampling for 24-hours for PK/PD measures (For details of PK/PD assays and timepoints as shown in Table 4A-Table 4C, Table 5, and Table 6A-Table 6C CLTX-305 will be administered in the morning, with water, within 30 minutes prior to breakfast. If dose escalation is limited due to tolerability or hypercalcemia, the investigator, in consultation with sponsor, may choose to repeat the last well-tolerated dose on Days 2 and 3, or down-titrate, as appropriate (See below for dosing guidance algorithm).
# In order to characterize both the pre-study calcemic status as well as changes associated with experimental interventions, the protocol will rely on frequent measurement of albumin-corrected blood calcium concentrations. Assays will be conducted according to specifications of the NIH Clinical Center Laboratory, Bethesda, Md. The main indicator of normal versus abnormal blood calcium levels will be based on the correction for serum or plasma albumin according to the formula corrected calcium (cCa)=measured total calcium (mg/dL)+0.8(4−albumin (g/dL)) OR measured total calcium (mmol/L)+0.2(4−albumin (g/dL)), recognizing that the total calcium reported in SI units (mmol/L) can be converted to conventional units (mg/dL) by multiplying by 4. Given that enrolled subjects are expected to have both normal and stable albumin levels, the measures of total calcium and cCa are likely to be similar throughout the time course of this study. […]
smiles,measurement,setting,value
"Cc1cc(-c2ccccc2[C@@H](C)OC[C@H](O)CNC(C)(C)Cc2ccc(Cl)c(F)c2)ccc1C(=O)O [CLTX-305, encaleret]",acute safety and tolerability,"[1]; 5-100 mg, non-ADH1 subjects",acutely safe and well tolerated
same,safety issues or signals,"[1]; acute dosing up to 100 mg, chronic dosing up to 15 mg QD, over 1300 healthy males and post-menopausal women",no specific safety issues or signals were seen
same,subjects with blood calcium above the upper limit of the laboratory reference range,"[1]; chronic once-daily dosing up to 15 mg, postmenopausal women, long-term trials",up to 30%
same,serious adverse events related to hyper- or hypocalcemia,"[1]; osteoporosis program, postmenopausal women",No serious adverse events (SAEs)
same,tolerability in humans during chronic treatment,[1]; up to and beyond 12 months,generally well tolerated
same,IC50,[2],86.2 nM
same,QTc prolongation,[3],no clinically meaningful QTc prolongation
same,serious adverse events,[4]; Period 1,no serious adverse events reported
same,"plasma exposure, dose relation (FIG. 8)","[4]; Period 1, 30-180 mg",dose proportional increase in plasma exposure
same,Number of AEs,"[4]; Period 1, N=6",9 n
same,tolerability,"[4]; Period 1, escalating oral doses once or twice daily over 5 days",well-tolerated
same,"PTH, mean level over 24 hours by day 5","[4]; Period 1, n=6, mean±SD, baseline 3.4±4.5",64.8 ± 49.6 pg/mL
same,"Magnesium, 24-hour day 5 mean","[4]; Period 1, n=6, baseline 1.6±0.4",2.0 ± 0.5 mg/dL
same,"Phosphorus, 24-hour day 5 mean","[4]; Period 1, n=6, baseline 4.5±0.7",2.9 ± 0.5 mg/dL
same,"Albumin-corrected blood calcium (cCa), 24-hour mean on day 5","[4]; Period 1, n=6, baseline 7.6±0.6",9.0 ± 0.5 mg/dL
same,Twenty-four hour urine calcium on day 5,"[4]; Period 1, n=6, screening 436±255 on conventional therapy",63 ± 127 mg/day
same,subjects in whom urinary calcium excretion became normal,"[4]; Period 1, of 6",3 subjects
same,subjects in whom urinary calcium excretion became undetectable,"[4]; Period 1, of 6",3 subjects
